The numbers were not newly measured in patent US20090298852A1, “Pellet-form slow-release preparation for vertigo” (priority 2005, published 2009), which cites them from elsewhere.

As for `C(=C\c1ccccc1)/CN1CCN(C(c2ccccc2)c2ccccc2)CC1` [cinnarizine, 1-benzhydryl-4-trans-cinnamylpiperazine], the solubility in water entry is on record as “approximately 2 mg/100 ml”.
